Measurements: US20230020663A1, “SULFONAMIDE INHIBITORS AS CTPS1 INHIBITORS” (Step Pharma S.A.S., priority 2019, published 2023)

Tested on: human CTPS1 versus CTPS2
Test: Human CTPS1 versus CTPS2 selectivity assessment by RapidFire/MS analysis
Format: biochemical
Settings: Table 26; RapidFire/MS IC50 ratio
Method: Human CTPS1 versus CTPS2 Selectivity Assessment by RapidFire/MS Analysis.
The enzyme inhibitory activities against each target isoform of interest may be determined for the compounds of the invention using an optimised RapidFire high-throughput mass spectrometry (RF/MS) assay format. RF/MS assays for both human CTPS1 and CTPS2 may be performed in assay buffer consisting of 50 mM HEPES (Merck), 20 mM MgCl2, 5 mM KCl, 1 mM DTT, 0.01% Tween-20, pH to 8.0 accordingly. Human full-length active C-terminal FLAG-His-tag CTPS1 (UniProtKB—P17812, CTPS[1-591]-[…]) may be obtained from Proteros biostructures GmbH. Human full length active C-terminal FLAG-His-Avi tagged CTPS2 (UniProtKB-Q9NRF8, CTPS2 [1-586]-[…]) may be obtained from Harker Bio.
Human CTPS (1 or 2) protein may be prepared in 1× assay buffer to the final working protein concentration required for the reaction. A 2 uL volume per well of 2×CTPS (1 or 2) protein may be mixed with 40 nL of compound using acoustic (ECHO) delivery and incubated for 10 minutes at 25° C. Each isoform enzymatic reaction may be subsequently initiated by addition of 2 uL per well of a 2× substrate mix in assay buffer. For hCTPS1: ATP (0.3 mM), UTP (0.2 mM), GTP (0.07 mM) and L-glutamine (0.1 mM). For hCTPS2: ATP (0.1 mM), UTP (0.04 mM), GTP (0.03 mM) and L-glutamine (0.1 mM). Each mixture may be incubated for an appropriate amount of time per isoform within the determined linear phase of the reaction at 25′C. A 60 uL volume of stop solution (1% formic acid with 0.5 uM ^13C9-^15N3-CTP in H2O) may be added and the plate immediately heat-sealed and centrifuged for 10 minutes at 4,000 rpm. Following centrifugation, plates may be loaded onto the Agilent RapidFire microfluidic solid phase extraction system coupled to an API4000 triple quadrupole mass spectrometer (RF/MS) for analysis.
In all cases, the enzyme converts UTP to CTP. Highly specific and sensitive multiple reaction monitoring (MRM) MS methods may be optimised for the detection of the enzymatic reaction product, CTP, and the stable isotope labelled product standard ^13C9-^15N3-CTP. Readout for data analysis may be calculated as the ratio between the peak area of the product CTP and the internal standard ^13C9-^15N3-CTP. For data reporting, the following equation may be used: […]
For each screening plate, the means of the negative (DMSO) and positive control values were used for the calculation of the respective assay window (S/B) and Z′ values. The median of the respective control values was used for calculation of percent inhibition according to the following equation: […]
Percentage inhibition was then plotted against compound concentration, and the 50% inhibitory concentration (IC50) was determined from the resultant concentration-response curve.
Fold selectivity between CTPS1 and CTPS2 was subsequently calculated according to the following equation: […]

Structure (SMILES)	Selectivity (fold selectivity between CTPS1 and CTPS2)
CCOc1cncc(-c2ccc(NC(=O)C(CCOC)c3ccnc(NS(=O)(=O)C4CC4)n3)cc2)n1 (stereo not drawn) [Example P110]	++ (>30-60 fold (++))
CCOc1cncc(-c2ccc(NC(=O)C3(c4ccnc(NS(=O)(=O)C5CC5)n4)CCOCC3)nc2)n1 [Example P115, 4-(2-(Cyclopropanesulfonamido)pyrimidin-4-yl)-N-(5-(6-ethoxypyrazin-2-yl)pyridin-2-yl)tetrahydro-2H-pyran-4-carboxamide]	+++ (>60 fold (+++))
CCOc1cncc(-c2ccc(C(=O)NCc3ccnc(NS(=O)(=O)C4CC4)n3)cc2)n1 [Example P118]	+++ (>60 fold (+++))
CC(C)(C(=O)Nc1ccc(-c2cncc(C3CC3)n2)cn1)c1ccnc(NS(=O)(=O)C2CC2)n1 [Example P125]	++ (>30-60 fold (++))
CC(C)(C(=O)Nc1ccc(-c2cncc(C3CC3)n2)cc1F)c1ccnc(NS(=O)(=O)C2CC2)n1 [Example P128]	+ (2-30 fold (+))
CC(C)c1cncc(-c2ccc(NC(=O)C(C)(C)c3ccnc(NS(=O)(=O)C4CC4)n3)cc2)n1 [Example P132]	++ (>30-60 fold (++))
CCOc1cncc(-c2ccc(NC(=O)C3(c4ccnc(NS(=O)(=O)C5CC5)n4)CCCC3)nc2)n1 [Example P136]	+++ (>60 fold (+++))
CCOc1cncc(-c2ccc(NC(=O)C3(c4ccnc(NS(=O)(=O)C5CC5)n4)CCOCC3)c(F)c2)n1 [Example P143]	+++ (>60 fold (+++))
CCOc1cncc(-c2ccc(NC(=O)C(CCOC)c3ccnc(NS(=O)(=O)C4CC4)n3)nc2)n1 (stereo not drawn) [Example P145]	+++ (>60 fold (+++))
CCOc1cncc(-c2ccc(NC(=O)C(CCOC)c3ccnc(NS(=O)(=O)C4CC4)n3)c(F)c2)n1 (stereo not drawn) [Example P146]	+++ (>60 fold (+++))
CCOc1cncc(-c2ccc(NC(=O)C(F)(CC)c3ccnc(NS(C)(=O)=O)n3)nc2)n1 (stereo not drawn) [Example P151]	+++ (>60 fold (+++))
CCOc1cncc(-c2cnc(NC(=O)C(CC)c3ccnc(NS(=O)(=O)C4CC4)n3)c(C)c2)n1 (stereo not drawn) [Example P155]	+ (2-30 fold (+))
CCC(C(=O)Nc1ncc(-c2cncc(OC)n2)cc1F)c1ccnc(NS(=O)(=O)C2CC2)n1 (stereo not drawn) [Example P158]	+ (2-30 fold (+))
CCC(C(=O)Nc1ccc(-c2cncc(OC)n2)cn1)c1ccnc(NS(=O)(=O)C2CC2)n1 (stereo not drawn) [Example P159]	+++ (>60 fold (+++))
CCOc1cncc(-c2ccc(NC(=O)C(CC)c3ccnc(NS(=O)(=O)C4CC4)n3)c(C)c2)n1 (stereo not drawn) [Example P161]	+ (2-30 fold (+))
CCOc1cncc(-c2cnc(NC(=O)C(CC)c3ccnc(NS(=O)(=O)C4CC4)n3)c(F)c2)n1 (stereo not drawn) [Example P162]	++ (>30-60 fold (++))

Structure (SMILES)	Selectivity (fold selectivity between CTPS1 and CTPS2)
CCOc1cncc(-c2ccc(NC(=O)C(C)(CC)c3ccnc(NS(=O)(=O)C4CC4)n3)nc2)n1 (stereo not drawn) [Example P163]	+++ (>60 fold (+++))
CCOc1cncc(-c2ccc(NC(=O)C(OC)c3ccnc(NS(=O)(=O)C4CC4)n3)cc2)n1 (stereo not drawn) [Example P164]	+ (2-30 fold (+))
CCOc1cncc(-c2ccc(NC(=O)C(CC)c3cccc(NS(=O)(=O)C4CC4)n3)nc2)n1 (stereo not drawn) [Example P188]	++ (>30-60 fold (++))
CCOc1cncc(-c2ccc(NC(=O)C(CC)c3cccc(NS(=O)(=O)C4CC4)n3)cc2)n1 (stereo not drawn) [Example P191]	++ (>30-60 fold (++))
CCOc1cncc(-c2ccc(NC(=O)C(C)(C)c3cncc(NS(=O)(=O)C4CC4)n3)nc2)n1 [Example P195]	+++ (>60 fold (+++))
CCOc1cncc(-c2ccc(NC(=O)C(C)(C)c3cncc(NS(=O)(=O)C4CC4)n3)cc2)n1 [Example P196]	+++ (>60 fold (+++))
CCOc1cncc(-c2ccc(NC(=O)C3(c4cncc(NS(=O)(=O)C5CC5)n4)CCOCC3)nc2)n1 [Example P197]	+++ (>60 fold (+++))
CCOc1cncc(-c2ccc(NC(=O)C(C)(CCOC)c3cncc(NS(=O)(=O)C4CC4)n3)nc2)n1 (stereo not drawn) [Example P198]	+++ (>60 fold (+++))
CCOc1cncc(-c2ccc(NC(=O)C(F)(CC)c3cncc(NS(=O)(=O)C4CC4)n3)nc2)n1 (stereo not drawn) [Example P200]	++ (>30-60 fold (++))
CCOc1cncc(-c2ccc(NC(=O)C(CC)c3cncc(NS(=O)(=O)C4CC4)n3)nc2)n1 (stereo not drawn) [Example P201]	+++ (>60 fold (+++))
CCOc1cncc(-c2ccc(NC(=O)C(CC)c3cncc(NS(=O)(=O)C4CC4)n3)cc2)n1 (stereo not drawn) [Example P202]	+++ (>60 fold (+++))
CCOc1cncc(-c2ccc(NC(=O)C(C)(OC)c3cncc(NS(=O)(=O)C4CC4)n3)nc2)n1 (stereo not drawn) [Example P205a]	+++ (>60 fold (+++))
CCOc1cncc(-c2ccc(NC(=O)C(C)(OC)c3cncc(NS(=O)(=O)C4CC4)n3)nc2)n1 (stereo not drawn) [Example P205b]	++ (>30-60 fold (++))
CCOc1cncc(-c2ccc(C(=O)NC(CC)c3ccnc(NS(=O)(=O)C4CC4)n3)c(F)c2)n1 (stereo not drawn) [Example P216]	+++ (>60 fold (+++))
CC(C)Oc1cncc(-c2ccc(C(=O)NC(C)(C)c3cncc(NS(=O)(=O)C4CC4)n3)c(F)c2)n1 [Example P221]	+ (2-30 fold (+))
CC(C)(NC(=O)c1ccc(-c2cncc(C(F)(F)F)n2)cc1)c1cncc(NS(=O)(=O)C2CC2)n1 [Example P222]	+ (2-30 fold (+))

Same assay, conditions: Table 27; RapidFire/MS IC50 ratio

Structure (SMILES)	Selectivity (fold selectivity between CTPS1 and CTPS2)
CCOc1cncc(-c2ccc(NC(=O)C3(c4ccnc(NS(=O)(=O)C5CC5)n4)CCC(=O)CC3)nc2)n1 [Example P226, 1-(2-(Cyclopropanesulfonamido)pyrimidin-4-yl)-N-(5-(6-ethoxypyrazin-2-yl)pyridin-2-yl)-4-oxocyclohexanecarboxamide]	+++ (>60 fold (+++))
CCOc1cncc(-c2ccc(NC(=O)C3(c4ccnc(NS(=O)(=O)C5CC5)n4)CCC(F)(F)CC3)nc2)n1 [Example P242]	+++ (>60 fold (+++))
CCOc1cncc(-c2ccc(NC(=O)C3(c4ccnc(NS(=O)(=O)C5CC5)n4)CCC4(CC3)OCCO4)nc2)n1 [Example P244, 8-(2-(cyclopropanesulfonamido)pyrimidin-4-yl)-N-(5-(6-ethoxypyrazin-2-yl)pyridin-2-yl)-1,4-dioxaspiro[4.5]decane-8-carboxamide]	+++ (>60 fold (+++))
CCOc1cncc(-c2ccc(NC(=O)C3(c4ccnc(NS(=O)(=O)C5CC5)n4)CCN(S(C)(=O)=O)CC3)nc2)n1 [Example P251]	+++ (>60 fold (+++))
